Tests used:
[1] = test system: MOLM-13 (FLT3 ITD+/− mutant type); test: In vitro growth inhibition (GI50), MOLM-13; format: cell-based, human; details: for GI50: Homo sapiens, MOLM-13, Cell lines of leukemia, read-out: GI 50 MOLM-13 FLT3 (ITD+/−); for inhibition activity against the growth of MOLM-13 cells compared with AC220: compared with the control compound AC220
[2] = test system: NCI-H2228 (expressing EML4-ALK fusion gene); test: In vitro growth inhibition (GI50), NCI-H2228; format: cell-based; details: Homo sapiens
Excerpt: Tumor cell line is an effective cell model for studying the inhibition of tumor cell growth or proliferation in vitro. In the present invention, a representative tumor cell line was selected to determine the cell growth inhibition activity of the present compound. All cell lines used were from ATCC, DSMZ, and the Cell Bank of the Chinese Academy of Sciences. Cell culture conditions and methods were in accordance with the requirements of each cell line. Cells were subcultured in vitro for no more than 3 passages each time, and as required, single-clone purification and identification of cell lines could be carried out.
The cell culture media used were RPMI1640 (Gibco), MEM (Gibco), McCOY'S5A (Gibco), and IMDM (Gibco). The complete medium was prepared by supplement with 5˜20% fetal calf serum (Gibco), 1% double-antibiotics (10000 units/mL penicillin and 10000 units/mL), 2 mM glutamine or 1 mM sodium pyruvate, respectively.
Human non-small cell lung cancer cell line NCI-H2228 (expressing EML4-ALK fusion gene, ATCC) and human anaplastic large cell lymphoma cell line Karpas-299 (expressing NPM-ALK fusion gene, ATCC) were cultured in complete medium comprising 1×RPMI1640 (10% FBS), respectively. Neuroblastoma cell line SH-SY5Y (expressing ALK F1174L mutant protein, Shanghai Cell Bank, Chinese Academy of Sciences) was cultured in MEM complete medium (1×MEM, 10% FBS, 1% NEAA, 1 mM sodium pyruvate).
Adherent cells were digested with 0.25% pancreatin-EDTA (Gibco). The suspension cells were collected by centrifugation. The supernatant was discarded and the cell pellet was resuspended and counted. Different cell concentrations (5˜10×10^4 cells/mL) were prepared according to the growth cycle of each cell line and then seeded on a 96-well plate (Corning), 100 μL/well. The cells were incubated overnight at 37° C., 5% CO2. The compounds were added to the cells on the second day with 2 wells in parallel. The final concentration of organic solvent shall not exceed 1%. The cells were continually incubated for 3 to 5 days, and then subjected to MTT assay.
The compound of the present invention and the control compound were dissolved in DMSO (Sigma) respectively, with the purity of more than 98%. The compound was stored in a concentration of 10 mM at −20° C. and diluted to 2- or 10-fold series prior to use.
Dojindo CCK8 reagent kit was used as MTT assay. THERMO […] FC meter was used as microplate reader.
For adherent cells, culture medium was removed and immediately replaced with the fresh prepared medium which contains 10% CCK8 reagent (100 μL/well). For the suspension cells, CCK8 was directly added to 10% of the final concentration. The cells were continually incubated for 1˜4 h. When a dark yellow color could be observed in the solvent control wells, the absorbance value at OD450 nm was measured and the cell growth rate was calculated according to the following formula: Cell Growth Rate (%)=100*(T−T0)/(C−T0) T=optical density of drug treatment cell well—optical density of blank control well; T0=optical density of cell well before drug treatment—optical density of blank control well; C=optical density of cell well of solvent control group—optical density of blank control well. The concentration value of 50% inhibition of cell growth (GI50) was calculated according to the drug concentration and cell growth rate curve. The experiment was independently repeated 1˜3 times, and subject to biological statistical analysis. 4. Experimental Results
Tumor cell growth inhibition test was performed by selecting representative compounds (compounds 4, 11, 12, 16, 27, 68, 71, 77, 79, 89 and 116 of the present invention). The initial concentration of the compound was 5,000 nM, then it was serially diluted by 2-fold or 10-fold to 0.01 nM. The GI50 value of each test compound was calculated according to the GI50 assay and calculation method. The experiments were repeated 1 to 3 times, and data were subjected to biological statistical analysis.

SMILES | GI50 [1] [nM] | GI50 [2] [nM] | inhibition activity against the growth of MOLM-13 cells compared with AC220 [1]
CC(C)(C)c1cc(NC(=O)Nc2ccc(-n3cnc4cc(O)ccc43)cc2)no1 [Compound 4, 1-(5-tert-butyl-isoxazol-3-yl)-3-[4-(5-hydroxy-benzimidazol-1-yl)-phenyl]-urea] | 0.1 to 1 | > 2500 | 
CC(C)(C)c1cc(NC(=O)Nc2ccc(-n3cnc4cc(OCCO)ccc43)cc2)no1 [Compound 11, 1-(5-tert-butyl-isoxazol-3-yl)-3-{4-[5-(2-hydroxy-ethoxyl)-benzimidazol-1-yl]-phenyl]-urea] | 0.01 to 0.1 | > 2500 | stronger inhibition activity
CC(C)(C)c1cc(NC(=O)Nc2ccc(-n3cnc4cc(OCCN5CCOCC5)ccc43)cc2)no1 [Compound 16, 1-(5-tert-butyl-isoxazol-3-yl)-3-{4-[5-(2-morpholin-4-yl-ethoxyl)-benzimidazol-1-yl]-phenyl}-urea] | 0.1 to 1 | > 2500 | 
CC(C)(C)c1cc(NC(=O)Nc2ccc(-n3cnc4ccc(OCCN5CCOCC5)cc43)cc2)no1 [Compound 27, 1-(5-tert-butyl-isoxazol-3-yl)-3-{4-[6-(2morpholin-4-yl-ethoxyl)-benzimidazol-1-yl]-phenyl}-urea] | 0.1 to 1 | > 2500 | 
CC(C)(C)c1cc(NC(=O)Nc2ccc(-n3cnc4ccccc43)cc2)[nH]n1 [Compound 68, 1-(4-benzimidazol-1-yl-phenyl)-3-(5-tert-butyl-2H-pyrazol-3-yl)-urea] | 0.1 to 1 | > 2500 | 
COc1ccc2c(c1)ncn2-c1ccc(NC(=O)Nc2cc(C(C)(C)C)n[nH]2)cc1 [Compound 71, 1-(5-tert-butyl-2H-pyrazol-3-yl)-3-[4-(5-methoxyl-benzimidazol-1-yl)-phenyl]-urea] | 0.01 to 0.1 | > 2500 | stronger inhibition activity
COCCOc1ccc2c(c1)ncn2-c1ccc(NC(=O)Nc2cc(C(C)(C)C)n[nH]2)cc1 [Compound 77, 1-(5-tert-butyl-2H-pyrazol-3-yl)-3-{4-[5-(2-methoxyl-ethoxyl)-benzimidazol-1-yl]-phenyl}-urea] | 0.01 to 0.1 | > 2500 | stronger inhibition activity
CC(C)(C)c1cc(NC(=O)Nc2ccc(-n3cnc4cc(OCCO)ccc43)cc2)[nH]n1 [Compound 79, 1-(5-tert-butyl-2H-pyrazol-3-yl)-3-{4-[5-(2-hydroxy-ethoxyl)-benzimidazol-1-yl]-phenyl]urea] | 0.1 to 1 | > 2500 | stronger inhibition activity
CC(C)(C)c1cc(NC(=O)Nc2ccc(-n3cnc4cc(OCCN5CCOCC5)ccc43)cc2)[nH]n1 [Compound 89, 1-(5-tert-butyl-2H-pyrazol-3-yl)-3-{4-[5-(2-morpholin-4-yl-ethoxyl)-benzimidazol-1-yl]-phenyl}-urea] | 0.1 to 1 | > 2500 | stronger inhibition activity
CC(C)(C)c1cc(N)n(C(=O)Nc2ccc(-n3cnc4ccccc43)cc2)n1 [Compound 116, 5-amino-3-tert-butyl-pyrazol-1-carboxylic acid (4-benzimidazol-1-yl-phenyl)-amide] | 10 to 100 | > 2500 | 

From patent US10647680B2, “Urea compound, preparation method therefor and medical use thereof” (Ancureall Pharmaceutical (Shanghai) Co., Ltd., priority 2016, dated 2020)
